# Assay: in vitro
# Settings: human, hela cells, % viability
row,Structure (SMILES),"viability at 28.5 h, 10 µM [%]"
1,COCCNC(=O)c1cc(-c2ccc(C)cc2)nc2c1cnn2C(C)C [CBK305033],93.8
2,CCn1c(SCC(=O)N2CCCC2)nc2cc(C)[nH]c2c1=O [CBK288027],99.9
3,COCCn1cnnc1CCNC(=O)Cc1cccc(O)c1 [CBK307322],112
4,COc1ccc(C(=O)N2CCC3(CCCN(C(=O)c4ccc5[nH]c(=O)[nH]c5c4)C3)C2)cc1OC (stereo not shown) [CBK137086],98.5
5,Cc1c(F)cccc1CN1CCCN(S(=O)(=O)c2ccc(-c3ccccc3)cc2)CC1 [CBK062977],95.9
6,Cc1ccc(C2(CN3CCN(Cc4cncn4C)CC3)CC2)cc1 [CBK283308],107
7,COC(=O)CCCN1CCCC12CCc1[nH]c3ccccc3c1C2 (stereo not shown) [CBK107798T],95.6
8,O=C(O)CNS(=O)(=O)c1ccc(F)cc1 [CBK034464],122
9,CCC(C)NC(=O)Cn1c(C2CCNCC2)cc2cccnc21 (stereo not shown) [CBK285003],103
10,CCN1CCN(Cc2nc3c([nH]2)c(=O)n(C)c(=O)n3C)CC1 [CBK269413],90.5
11,CC(=O)Nc1ccc(S(=O)(=O)Nc2ccc(C(=O)N3CCOCC3)cc2)cc1 [CBK034564],94.9
12,NCCCC(C(=O)O)C(=O)c1ccccc1-c1ccccc1 (stereo not shown) [CBK286941],99.2
13,O=C(O)CC(c1ccccc1)c1ccc2c(c1)OCO2 (stereo not shown) [CBK286983],87.8
14,COc1ccc(C(=O)Nc2cc(C)nn2-c2nc3ccccc3s2)cc1 [CBK287841],89.8
15,CCC1CCc2c(sc(NC(=O)c3cc(-c4ccc(Cl)s4)nc4ccccc34)c2C(N)=O)C1 (stereo not shown) [CBK262646],88.9
16,Cc1ccc(Cl)c(OC(C)C(=O)N2CCCC(C(N)=O)C2)c1 (stereo not shown) [CBK304936],99.3
17,CC(=O)N1CCc2cc(NC(=O)C3CC4C=CC3C43CC3)ccc21 (stereo not shown) [CBK281472],79.8
18,N#CCn1nnc(-c2ccc3c(c2)OCO3)n1 [CBK062663],98.7
19,Cn1ccc2ccc(C(=O)Nc3nccs3)cc21 [CBK287910],106
20,CC(C)(C)c1ccc(S(=O)(=O)N2CCNC(=O)C2)cc1 [CBK051238],88.9
21,O=C(c1ccc2[nH]ccc2c1)N1CCCC1 [CBK149074],106
22,O=C(NCC(=O)N1CCCC1c1cccs1)c1cccc(Br)c1 (stereo not shown) [CBK305655],99.2

row,Structure (SMILES),"viability at 28.5 h, 10 µM [%]"
1,c1ccc(-c2nc(N3CCOCC3)n3ccccc23)cc1 [CBK014407],89.2
2,COc1ccc(C(NC(=O)C2CCN(C(=O)C(C)(C)C)CC2)c2cnccn2)cc1 (stereo not shown) [CBK059791],97
3,CC(=O)Nc1ccc(CCOc2nccnc2/C=C/c2ccccc2)cc1 [CBK106880],94.1
4,FC(F)(F)c1ccc(N2CCNCC2)nc1SCc1ccccc1Cl [CBK003964A],98.2
5,CC(C)n1c(=O)n(CC(=O)N2CCCCC2)c2cccnc21 [CBK283526],90.6
6,COC(=O)c1ccc(CN2CCN(CCN3C(=O)c4cccc5cccc(c45)C3=O)CC2)cc1 [CBK074518],88.8
7,CC(C)(C)C(=O)Nc1ccc(C(=O)Nc2cccc(C(=O)O)c2)cc1 [CBK261329],94.8
8,Nc1nonc1N/N=C/c1ccccc1F [CBK028838],68.4
9,COc1ccc(Br)cc1C(=O)NCC1(c2ccccc2)CCOCC1 [CBK067051],82.7
10,CC(C)(C)c1cc(N2C(=O)C(O)=C(C(=O)c3ccc(Cl)cc3)C2c2cccc([N+](=O)[O-])c2)no1 (stereo not shown) [CBK263470],92.8
11,Cc1ccc(N(CC(=O)N/N=C/c2ccccc2)S(=O)(=O)c2ccccc2)cc1 [CBK262090],88.3
12,COCCNC(=O)NCCCn1c(-c2ccncc2)nc2cccnc21 [CBK288581],98.6
13,O=C(Nc1nc2ccccc2[nH]1)c1cccc(N2CCCS2(=O)=O)c1 [CBK304584],100
14,CN1CCN(c2ccc(-c3cncc(N4CCN(c5ccncc5)CC4)n3)cn2)CC1 [CBK065144],92.9
15,CN(C)C(CNC(=O)Nc1cccc(C(=O)NC2CC2)c1)c1cccs1 (stereo not shown) [CBK305565],115
16,O=S(=O)(c1ccccc1C(F)(F)F)n1ccc2c(N3CCNCC3)nccc21 [CBK045605C],99.5
17,O=C(O)C1CCCCC1C(=O)NCCc1ccc(Cl)cc1 (stereo not shown) [CBK267972],98.5
18,CCOC(=O)c1cccc(NS(=O)(=O)c2ccc(NC(C)=O)cc2)c1 [CBK034349],78.8
19,COc1ccc(Nc2cc(-c3cccc(N)c3)ncn2)c(C)c1 [CBK091035],97.1
20,Cc1cccc2c3c([nH]c12)CCN(C(=O)C(C)N1CCOCC1)C3 (stereo not shown) [CBK281600],89.2
21,Cc1cc(C)cc(CNC(=O)N(CCCO)Cc2ccncc2)c1 [CBK304335],93.7
22,c1ccc(-c2nnc(COc3ccc(-c4cnc5ccccc5n4)cc3)o2)cc1 [CBK269707],90.4

row,Structure (SMILES),"viability at 28.5 h, 10 µM [%]"
1,Nc1nc2c([C@@H]3O[C@H](CO)[C@H](O)C3O)c[nH]c2c(=O)[nH]1 (stereo partly shown) [CBK201292],94.5
2,CCOC(=O)c1c(C)oc2ccc(O)c(CN3CCCCC3)c12 [CBK263838C],103
3,CCn1c(C(CC(C)C)NC(=O)c2ccco2)nc2cccnc21 (stereo not shown) [CBK283523],94.3
4,Cc1nn(C)cc1-c1cncn1C(C)c1ccc2c(c1)CCCO2 (stereo not shown) [CBK281798],100
5,C#C[C@H]1C[N@@]2CC[C@H]1C[C@@H]2CNS(=O)(=O)c1ccc(NC(C)=O)cc1 [CBK288752],103
6,CN1CCN(Cc2c(O)ccc3cc(-c4ccc(F)cc4)c(=O)oc23)CC1 [CBK267976],111
7,Cc1nc(CC(=O)OC(C)C(=O)N2CCCc3ccccc32)cs1 (stereo not shown) [CBK305285],91.6
8,COCCc1noc(CC2CCN(c3nc(C)cc(C#N)n3)CC2)n1 [CBK304179],88.5
9,O=C(NC(Cc1cccs1)c1nccs1)c1cccnc1 (stereo not shown) [CBK285133],98.3
10,O=C(NC1CCN(CC2(c3ccccc3)CC2)CC1)C1CCC1 [CBK285322],98.9
11,O=C(CCNc1n[nH]c(=O)[nH]c1=O)N/N=C/c1ccc(C(F)(F)F)cc1 [CBK263518],87.7
12,O=S(=O)(c1cccc2nsnc12)N1CCCN(Cc2ccsc2)CC1 [CBK038570],105
13,O=C(C1CC1)N1CCCC1c1nc(-c2ccc(F)cc2)n[nH]1 (stereo not shown) [CBK283934],102
14,O=S(=O)(NCCn1c(-c2ccncc2)nc2ccccc21)c1ccccc1 [CBK288578],87.2
15,O=C(O)c1ccc(N2C(=O)CC(N3CCN(CCO)CC3)C2=O)cc1 (stereo not shown) [CBK271638],88.9
16,CCCCc1ccc(-c2nc(NC(=O)NCC)cc3cccnc23)cc1 [CBK081231],94.6
17,NC(=O)c1cccc(OCCOc2nccnc2N2CCNCC2)c1 [CBK014338G],114
18,CSCC[C@H](NC(=O)Nc1ccc(N2CCC(C)CC2)cc1)C(=O)O [CBK286743],86
19,COc1ccc(CNC(=O)c2cn[nH]c2-c2ccccc2)c(OC)c1 [CBK288057],100
20,CN(CC1CCN(C(=O)OC(C)(C)C)CC1)c1ccnc(-c2ccncc2)n1 [CBK166064],101
21,Cc1cc(C)cc(NC(=O)Cn2cnc3c(sc4ccccc43)c2=O)c1 [CBK287807],82.5
22,Cc1noc(C)c1C(=O)N1CCN(Cc2ccccc2)CC1 [CBK200173],90.9

row,Structure (SMILES),"viability at 28.5 h, 10 µM [%]"
1,O=C(NCc1ccccn1)C1CCN(S(=O)(=O)c2ccc(Cl)cc2)CC1 [CBK264959],90.2
2,COc1ccc2[nH]c(-c3cncn3CCCC(C)(C)CO)cc2c1 [CBK281778],90.9
3,CCOc1cc(OCC)cc(C(=O)N2CCCC3(CC2)CC(=O)c2ccc(C)cc2O3)c1 (stereo not shown) [CBK168241],98.2
4,O[C@@]1(c2ccccn2)CC[C@H]2CN(CC3CCCCC3)C[C@H]21 [CBK282996],96.9
5,Cc1nc2c(c(N3CCOCC3)n1)OCC(=O)N2 [CBK287939],94.5
6,Cc1c(S(=O)(=O)NCc2ccc(C(F)(F)F)c(F)c2)cnn1-c1ccccc1 [CBK062115],108
7,COCCn1c(SCC(=O)N2CCNC2=O)nc2ccccc21 [CBK305851],97.3
8,O=C(N[C@@H](Cn1cc(F)c(=O)[nH]c1=O)C(=O)O)C1CCCCC1 [CBK289661],89.2
9,CN(C)CCN(C(=O)Cc1ccc2c(c1)CCC2)C1CCN(C)CC1 [CBK282182],84.6
10,Cc1ccc(C(=O)Nc2nc3ccc(S(=O)(=O)N(C)C)cc3s2)cc1 [CBK287603],93.1
11,O=C(O)c1ccc2c(c1)C(=O)N(c1ccc3c(c1)Cc1cc(N4C(=O)c5ccc(C(=O)O)cc5C4=O)ccc1-3)C2=O [CBK261333],90.5
12,CCOC(=O)C(NC(=O)CCn1ccc2ccncc21)C(C)C (stereo not shown) [CBK284719],91.6
13,CN(Cc1nc2ccccc2c(=O)[nH]1)Cc1cc2c(cc1Br)OCCO2 [CBK296715],108
14,Cc1nnc([C@H]2CCN(Cc3ccc(F)cc3)C2)o1 [CBK289391],88.4
15,CN1CCN(C(=O)Nc2cccc(-c3nc(-c4ccc(C#N)cc4)cnc3N)c2)CC1 [CBK116251],91.7
16,O=C(c1ccccc1)n1cc(-c2ccccn2)c(N2CCOCC2)n1 [CBK021010],100
17,CCN1CCC2(CCC1=O)CN(Cc1noc(CC(C)C)n1)CCN2C (stereo not shown) [CBK306971],90.5
18,O=C1OC(c2ccccc2)=C/C1=C1/C(=O)Nc2ccccc21 [CBK115375],102
19,Cc1nc(C(F)(F)F)ccc1C(=O)N1C=CC(C(F)(F)F)=NCC1 [CBK057187],113
20,Cc1cc(C)n(CCn2cc(-c3ncc[nH]3)nn2)c(=O)n1 [CBK307554],83.1
21,CC(=O)Nc1cccc(-c2cnc(N)c(N3CCN(C)CC3)n2)c1 [CBK063361],107
22,Cn1nc(NC(=O)Cc2ccsc2)c2c(N3CCOCC3)cccc21 [CBK307023],109

# Source: paper PMC12040169 (PLOS Biology, 2025)
